“Also recorded” adds a separate entry of the source. Where two headings read alike, the source gives them in different places.
How the values were obtained:
TNF-α = conditions: has been shown; cited from earlier work
WT and KO mice = conditions: systemic salicylate injection, FIGS. 5C-5D
Description: To assess an animal's ability to perform an auditory task, separate from its ability to detect a silent gap, the pre-pulse inhibition (PPI) task was administered to a subset of the mice before and after NIHL. The physical setup for the PPI task was identical to that of the gap detection. However, the trial structure differed in that carrier tone was absent and a white noise burst was cued by a 50-ms pure tone pulse (frequency pseudo-randomly selected from 5, 7, 10, 14, 20, 28, or 45 kHz, all at 75 dB SPL). In short, the PPI task tests an animal's ability to detect a pure tone pulse in silence, while the gap detection task measures an animal's ability to detect a silent gap in a continuous pure tone.

[1] = tested on: wildtype and TNF-α KO mice
Description: Tinnitus was assessed using the gap detection paradigm. The gap detection task measures the acoustic startle response elicited by a brief white noise pulse and its suppression by a preceding silent gap embedded in a background sound. […] Mice were placed in a small box, which rested atop a piezoelectric sensor within a sound attenuation chamber. Sounds were played through an open field speaker (FOSTEX FT17H) fixed above the small box. Each trial began with a carrier pure tone (frequency pseudo-randomly selected from 5, 7, 10, 14, 20, 28, or 45 kHz, all at 75 dB SPL), played for 10-20 s. In uncued trials, the carrier tone was followed by a startle stimulus—a 50 ms white noise burst at 102 dB SPL. In cued trials, the startle stimulus was preceded by a 50 ms silence, 100 ms prior to its onset. In each testing session, the animal performed a total of 500 trials (50% cued and 50% uncued). After each session, the startle response ratio was calculated, which is defined as the average startle amplitude to the cued trials divided by the average amplitude of the uncued trials. The startle response ratio signifies a silent-gap induced reduction of the startle response. For example, a startle response ratio of 0.6 indicates a 40% reduction of the startle amplitude for the cued trials.

blast-exposed rats [2] = test: Blast-induced tinnitus, gap detection, thalidomide treatment; format: in vivo, rat; conditions: injected daily for 5 days, FIG. 8C
Description: A rat model of blast-induced tinnitus was developed to investigate the role of TNF-α in a traumatic brain injury (TBI) blast exposure induced tinnitus. Rats were anesthetized with isoflurane (0.75-1% in a 2:1 N2O:O2 gas mixture), placed on supportive netting, and secured with a locking device. All animals had one ear occluded with an earplug before they were blast-exposed in a shock-tube assembly (ORA, Inc.).
Behavioral evidence of blast-induced tinnitus was tested using a gap detection test as described above. […] Blast-exposed rats also spent less time in, and made fewer entries into, the open arms of an elevated plus maze (FIG. 7C), showing a higher anxiety level. The results are consistent with findings in blast-exposed humans and indicate that the blast model is suitable for studying mechanisms and treatment of blast-induced tinnitus and anxiety.

C57BL/6 mice = test: Noise-induced tinnitus (NIHL), gap detection task, thalidomide treatment; format: in vivo, mouse; conditions: 100 mg/kg IP daily for three days after noise exposure, FIG. 9
Description: All experimental procedures were reviewed and approved by UC Berkeley Animal Care and Use Committee. TNF-α knockout (KO) mice and corresponding C75Bl/6 wild-type (WT) mice were originally purchased from the Jackson Laboratory and were bred in a UC Berkeley animal facility. Animals were anesthetized with ketamine (100 mg/kg, IP) and xylazine (10 mg/kg, IP) and maintained at 36.5° C. with a homeothermic heating pad (Harvard Apparatus). Unilateral noise-induced hearing loss (NIHL) experiments were performed in a sound attenuation chamber by playing a continuous pure tone of 8 kHz at 112 dB SPL through a calibrated custom-made piezo earphone speaker to the left ear of the mouse for 2 hours, while the right ear was protected with sound attenuating clay. The sound level was calibrated with a Bruel and Kjaer 4135 condenser microphone (Nærum, Denmark) before and after the NIHL.
Tinnitus was assessed using the gap detection paradigm.
Eight C57BL/6 mice were tested with the gap detection task, described above, before and after undergoing NIHL. […] Afterward, animals received daily injection of 100 mg/kg (IP) thalidomide for three days and were tested for tinnitus.

blast-exposed rats [3] = test: Blast-induced tinnitus, gap ratio, etanercept; format: in vivo, rat; conditions: for gap ratio values (gap/startle-only response), therapeutic effect on tinnitus: FIG. 29
Description: Each of the rats was subjected to blast exposure in the left ear using a shock tube (ORA Inc.) located at the Wayne State University Bioengineering Center. The blast exposure of each rat was performed under anesthesia with a mixture of air (1 liter/min) and isoflurane (5% v/v). The rat was placed on supportive netting with a metal surround and secured on a pole with its head facing the oncoming shockwave. During blast exposure, the rat's right ear was occluded with a silicone earplug (Mack's; McKeon Products, Warren, Mich.), followed by application of mineral oil to seal any remaining openings. The average energy under 10 kHz measured at 22 psi was equivalent to 150 kPa or 197.5 dB SPL. After blast exposure, each rat was transferred to a polycarbonate cage.
Thirty two rats from Example 10 were used. Behavioral tinnitus testing, including gap detection and PPI testing, was conducted with Hamilton-Kinder startle-reflex hardware and software. During behavioral testing, each rat was placed in an individual noise-attenuation chamber to perform gap and PPI testing. In the gap procedure, each rat was presented with a constant 60-dB SPL background noise composed of 2,000 Hz bandpass signals at 6-8, 10-12, 14-16, 18-20, or 26-28 kHz or broadband noise (BBN; 2-30 kHz). A 115 dB SPL, 50 ms noise-burst was used as the startle stimulus to induce the acoustic startle reflex. The background noise session contained two conditions, one condition was the startle only condition in which rat was presented with the startle stimulus alone, and the other condition was the gap condition in which a rat was presented with a startle stimulus preceded by a silent gap embedded within the background noise. Silent gaps were 40 ms in duration with a lead interval of 90 ms to the startle stimulus. The startle reflex of rats was measured in response to 3 conditions: 1) background noise alone, 2) startle only, and 3) gap. […] The startle amplitude of rats in response to the two conditions was measured: the startle-only condition and a prepulse followed by the startle stimulus. […]

[4] = 5 mg/kg, I.P. route; cited from earlier work

Question: What does the source list for `O=C(O)c1ccccc1O` [salicylate]?
Answer: TNF-α expression in the inferior colliculus (TNF-α): increase TNF-α expression in the inferior colliculus; PPI performance (WT and KO mice): affected PPI performance in WT but not KO mice; behavioral manifestation of tinnitus (gap detection) ([1]; TNF-α KO mice, same dose 300 mg/kg, FIG. 5B): did not show tinnitus; behavioral manifestation of tinnitus (gap detection) ([1]; wildtype mice, systemic injection 300 mg/kg, 30 min later, FIG. 5A): resulted in robust behavioral manifestation of tinnitus

Question: Which “blast-induced tinnitus (gap detection)” value (blast-exposed rats [2]) does the source give for `O=C1CCC(N2C(=O)c3ccccc3C2=O)C(=O)N1` (stereo not shown) [thalidomide] here?
Answer: The value was “Significant suppression of tinnitus; also recorded: significantly suppressed”.

Question: What about the “gap detection performance after NIHL” value (C57BL/6 mice) of the same compound?
Answer: The value was “dramatically improved gap detection performance over a wide frequency range, completely reversing the impairment”.

Question: Which results are given for etanercept?
Answer: gap ratio values (gap/startle-only response), therapeutic effect on tinnitus (blast-exposed rats [3]; 5 mg/kg i.p. daily for 5 days from 1 day after blast, low frequencies and 28 kHz, two-week and three-week timepoints): significant therapeutic effect on tinnitus; gap ratio values (gap/startle-only response), therapeutic effect on tinnitus (blast-exposed rats [3]; 5 mg/kg i.p. daily for 5 days, one-day and one-week timepoints): less pronounced; onset of therapeutic effect relative to 3,6′-dithiothalidomide (blast-exposed rats [3]; compare FIG. 29 with FIG. 15A): delayed therapeutic effect; effect on TBI [4]: attenuates TBI
